The structures appear in SMILES notation. pIC50: −log10 of the molar value.

The target of this assay is T1, LFA-1 binding to immobilized ICAM-1 (Homo sapiens, UniProt P05107+P20701).
T1 construct: made in house; host or cells: transfected 293 cells (LFA-1)
T1 sequence (P20701 26-1170): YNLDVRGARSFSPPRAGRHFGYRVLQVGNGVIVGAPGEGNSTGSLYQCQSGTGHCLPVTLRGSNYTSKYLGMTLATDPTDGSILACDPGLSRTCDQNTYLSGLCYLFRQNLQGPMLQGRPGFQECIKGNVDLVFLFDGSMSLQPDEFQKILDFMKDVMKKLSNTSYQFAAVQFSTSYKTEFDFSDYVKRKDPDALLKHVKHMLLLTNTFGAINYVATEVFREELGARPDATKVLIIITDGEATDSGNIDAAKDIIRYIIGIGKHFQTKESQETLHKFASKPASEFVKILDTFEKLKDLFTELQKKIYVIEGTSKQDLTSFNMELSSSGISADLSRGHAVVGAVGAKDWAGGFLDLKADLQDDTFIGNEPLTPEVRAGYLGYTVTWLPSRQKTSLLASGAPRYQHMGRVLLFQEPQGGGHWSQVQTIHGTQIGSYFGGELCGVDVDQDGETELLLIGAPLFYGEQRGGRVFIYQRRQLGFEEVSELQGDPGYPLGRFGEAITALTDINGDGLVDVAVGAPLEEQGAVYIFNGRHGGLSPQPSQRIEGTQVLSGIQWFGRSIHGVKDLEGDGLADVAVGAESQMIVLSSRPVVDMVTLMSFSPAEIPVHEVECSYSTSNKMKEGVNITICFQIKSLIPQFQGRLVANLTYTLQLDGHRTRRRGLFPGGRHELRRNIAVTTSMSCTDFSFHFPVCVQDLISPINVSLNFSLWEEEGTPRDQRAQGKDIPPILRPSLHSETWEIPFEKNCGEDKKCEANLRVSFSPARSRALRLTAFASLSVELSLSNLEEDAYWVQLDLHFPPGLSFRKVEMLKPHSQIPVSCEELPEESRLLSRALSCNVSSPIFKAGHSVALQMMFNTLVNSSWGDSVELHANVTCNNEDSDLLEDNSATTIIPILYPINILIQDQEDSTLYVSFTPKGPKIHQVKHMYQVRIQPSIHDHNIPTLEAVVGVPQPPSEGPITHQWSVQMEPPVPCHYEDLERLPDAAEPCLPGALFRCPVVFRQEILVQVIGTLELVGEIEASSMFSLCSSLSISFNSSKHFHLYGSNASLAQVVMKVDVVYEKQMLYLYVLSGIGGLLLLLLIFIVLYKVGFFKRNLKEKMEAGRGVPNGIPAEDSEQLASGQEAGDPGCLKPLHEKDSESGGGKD
T1 sequence (P05107 23-769): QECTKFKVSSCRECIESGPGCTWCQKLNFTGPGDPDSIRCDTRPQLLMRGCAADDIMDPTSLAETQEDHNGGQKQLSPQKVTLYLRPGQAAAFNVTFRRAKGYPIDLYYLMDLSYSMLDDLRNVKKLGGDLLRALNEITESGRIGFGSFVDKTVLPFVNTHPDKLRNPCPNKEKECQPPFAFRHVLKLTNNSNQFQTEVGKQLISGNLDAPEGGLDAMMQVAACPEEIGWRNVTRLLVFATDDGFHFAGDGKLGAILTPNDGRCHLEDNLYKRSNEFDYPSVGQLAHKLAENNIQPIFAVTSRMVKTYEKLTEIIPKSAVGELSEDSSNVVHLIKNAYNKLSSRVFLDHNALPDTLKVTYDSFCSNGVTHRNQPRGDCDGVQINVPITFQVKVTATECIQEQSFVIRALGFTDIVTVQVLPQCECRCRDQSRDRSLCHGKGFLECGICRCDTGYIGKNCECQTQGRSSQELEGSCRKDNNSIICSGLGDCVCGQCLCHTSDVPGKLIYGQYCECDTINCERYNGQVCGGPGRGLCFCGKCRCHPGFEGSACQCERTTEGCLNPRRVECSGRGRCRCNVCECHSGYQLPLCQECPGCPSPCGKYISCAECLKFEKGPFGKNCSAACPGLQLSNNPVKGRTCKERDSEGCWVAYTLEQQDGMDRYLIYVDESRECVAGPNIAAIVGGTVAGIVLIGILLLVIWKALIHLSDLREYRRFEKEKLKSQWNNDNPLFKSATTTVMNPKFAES
The assay can be described thus: LFA-1/ICAM-1 protein-protein assay (solid-phase ELISA). As to conditions: read-out: LFA-1/ICAM-1 Protein-Protein Assay IC50. An outline of the steps: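 Human 5dICAM-Ig (ICAM-1 extracellular domain–IgG Fc) coated on plates; membrane-bound LFA-1 from transfected 293 cells (280 ng/mL) added with compound in Mn2+-containing HEPES buffer pH 7.2, 2 h at 37° C. Bound LFA-1 detected via anti-β2 antibody and HRP/TMB at 450 nm; IC50s determined.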
(In general: In an ELISA, binding on a coated surface is turned into a signal by an enzyme label.)
Turning to `O=C(NCc1cccc(O)c1)c1cc(Cl)c(C(=O)N[C@@H](CNC(=O)c2ccc(Br)s2)C(=O)O)c(Cl)c1` [Example 354], the pIC50 was 9.00. Next, `Cc1ccc(C(=O)NC[C@H](NC(=O)c2c(Cl)cc(C(=O)NCc3cccc(O)c3)cc2Cl)C(=O)O)s1` [Example 358]: 9.70; `O=C(NCc1cccc(O)c1)c1ccc(C(=O)N[C@@H](CNS(=O)(=O)c2ccccc2)C(=O)O)c(Cl)c1` [Example 360, 3-(phenylsulfonylamino)-N-[2-chloro-4-[[[(3-hydroxyphenyl)methyl]amino]carbonyl]benzoyl]-L-alanine]: 8.28. Next, `CC(=O)Nc1nc(C)c(S(=O)(=O)NC[C@H](NC(=O)c2ccc(C(=O)N[C@H](C)c3cccc4ccccc34)cc2Cl)C(=O)O)s1` [Example 362]: 8.06; `O=C(NCc1ccc(C(=O)N[C@@H](CNC(=O)c2ccccc2)C(=O)O)c(Cl)c1)c1cccc(O)c1` [Example 364, N-[2-chloro-4-[[(3-hydroxyphenyl)carbonyl]aminomethyl]benzoyl]-3-benzoylamino-L-alanine]: 8.11.

As for `O=C(NC[C@H](NC(=O)c1ccc(CNC(=O)c2ccccc2O)cc1Cl)C(=O)O)c1ccccc1` [Example 365], the pIC50 was 7.74. As to `O=C(NCc1ccc(C(=O)N[C@@H](CNC(=O)c2ccccc2)C(=O)O)c(Cl)c1)c1cc(O)cc(O)c1` [Example 366], the pIC50 was 8.47. Then `O=C(NCc1ccc(C(=O)N[C@@H](CNC(=O)c2ccccc2)C(=O)O)c(Cl)c1)c1ccc2[nH]ccc2c1` [Example 368], with 7.96; and `O=C(NCc1ccc(C(=O)N[C@@H](CNC(=O)c2ccccc2)C(=O)O)c(Cl)c1)c1ccc2cc[nH]c2c1` [Example 369], with 8.07.

For the molecule `N=C(N)NC[C@H](NC(=O)c1ccc(C(=O)NCc2cccc(O)c2)cc1Cl)C(=O)O` [Example 371, N-[2-chloro-4-[[[(3-hydroxyphenyl)methyl]amino]-carbonyl]benzoyl]-3-(aminoiminomethyl)amino-L-alanine], the pIC50 is 8.00. Next, `O=C(NC[C@H](NC(=O)c1ccc(/C=C/Cc2ccccc2)cc1Cl)C(=O)O)c1cccs1` [Example 373, N-[2-chloro-4-(3-phenyl-1-propenyl)benzoyl]-3-(thiophene-2-carbonyl)amino-L-alanine]: 8.11; `O=C(NC[C@H](NC(=O)c1ccc(C(=O)[C@H]2C[C@@H]2c2ccccc2)cc1Cl)C(=O)O)c1cccs1` [Example 377]: 7.72; `O=C(CCc1ccccc1)c1ccc(C(=O)N[C@@H](CNC(=O)c2cccs2)C(=O)O)c(Cl)c1` [Example 378]: 8.01.

The values above are taken from patent US20040006236A1, “Diaminopropionic acid derivatives” (priority 1999, published 2004).
